From US9499538B2, “Estrogen receptor modulators and uses thereof” (Seragon Pharmaceuticals, Inc., priority 2012, dated 2016)
pIC50: −log10 of the molar value.

What was measured:
MCF-7 cells = experiment: Breast Cancer Cell Viability Assays (MCF-7, CellTiter-Glo); type: cell-based; conditions: 5 days' compound exposure; for pIC50: Homo sapiens, MCF7, 120 h
Outline: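 MCF-7 cells (320/well, RPMI with 10% FBS) exposed for 5 days to an eleven-point semilog series, 0.3–0.000003 μM final. Viability read by CellTiter-Glo luminescence, expressed as background-corrected percent of untreated cells.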

ER-α in MCF-7 cells = target: T1, ER-α in MCF-7 cells (Homo sapiens, UniProt P03372); experiment: Breast Cancer Cell ER-α In Cell Western Assay (SP1); type: cell-based; conditions: 4 or 24 hr post compound addition; for Emax: MCF7, SP1 antibody, read-out: ER-α In Cell Western Assay (SP1) Max Response; for DC50: SP1 antibody, read-out: ER-α In Cell Western Assay (SP1) IC50
T1 construct: endogenous in cells; host or cells: MCF-7
T1 sequence (P03372 1-595): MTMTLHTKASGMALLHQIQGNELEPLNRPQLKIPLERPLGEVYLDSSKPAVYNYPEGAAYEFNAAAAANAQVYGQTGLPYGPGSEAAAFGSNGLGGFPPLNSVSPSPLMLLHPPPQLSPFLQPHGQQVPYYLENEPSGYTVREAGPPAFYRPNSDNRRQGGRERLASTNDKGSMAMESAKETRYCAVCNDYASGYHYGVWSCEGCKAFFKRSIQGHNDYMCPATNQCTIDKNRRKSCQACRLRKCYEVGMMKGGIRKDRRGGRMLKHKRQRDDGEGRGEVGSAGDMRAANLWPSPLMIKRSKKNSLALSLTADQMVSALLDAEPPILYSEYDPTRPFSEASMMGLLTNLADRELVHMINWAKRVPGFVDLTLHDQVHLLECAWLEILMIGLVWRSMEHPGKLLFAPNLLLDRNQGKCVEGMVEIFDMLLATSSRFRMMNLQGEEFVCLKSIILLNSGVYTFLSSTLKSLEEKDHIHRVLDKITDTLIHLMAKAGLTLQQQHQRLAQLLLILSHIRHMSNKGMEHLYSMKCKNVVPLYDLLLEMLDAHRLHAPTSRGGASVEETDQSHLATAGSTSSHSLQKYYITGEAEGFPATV
Outline: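 MCF-7 cells in charcoal-stripped FBS medium, treated with 11-point semilog dilutions (0.3–0.000003 μM final) for 4 or 24 h. Fixed cells immunostained with SP1 antibody (800 nm) and DRAQ5 DNA (700 nm); ER/DNA ratio expressed as % of untreated cells.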

Row | SMILES | MCF7 Viability Assay Max Response (MCF-7 cells) | pIC50 (MCF-7 cells) | Emax (ER-α in MCF-7 cells) [%] | DC50 (ER-α in MCF-7 cells) [µM]
1 | O=C(O)/C=C/c1ccc(/C(=C(\c2ccc(C(F)(F)F)cc2Cl)C2CCC2)c2ccc3nccn3c2)cc1 [Example 231, (E)-3-(4-((E)-2-(2-Chloro-4-(trifluoromethyl)phenyl)-2-cyclobutyl-1-(imidazo[1,2-a]pyridin-6-yl)vinyl)phenyl)acrylic acid] | ++ (++ = a single % value ≧ 40%) | ≥ 7.00 | ≥ 40 | ≤ 0.1
2 | O=C(O)/C=C/c1ccc(/C(=C(\c2ccccc2)C2CCC2)c2cccc3[nH]ncc23)cc1 [Example 18, (E)-3-(4-((E)-2-Cyclobutyl-1-(1H-indazol-4-yl)-2-phenylvinyl)phenyl)acrylic acid] | ++ (++ = a single % value ≧ 40%) | ≥ 7.00 | ≥ 40 | ≤ 0.1
3 | Cc1cnccc1/C(=C(\c1ccc(/C=C/C(=O)O)cc1)c1ccc2scnc2c1)C1CCC1 [Example 83, (E)-3-(4-((E)-1-(Benzo[d]thiazol-5-yl)-2-cyclobutyl-2-(3-methylpyridin-4-yl)vinyl)phenyl)acrylic acid] | ++ (++ = a single % value ≧ 40%) | ≥ 7.00 | ≥ 40 | ≤ 0.1
4 | N#Cc1cc(C(F)(F)F)ccc1/C(=C(\c1ccc(/C=C/C(=O)O)cc1)c1ccc2scnc2c1)C1CCC1 [Example 242, (E)-3-(4-((E)-1-(Benzo[d]thiazol-5-yl)-2-(2-cyano-4-(trifluoromethyl)phenyl)-2-cyclobutylvinyl)phenyl)acrylic acid] | ++ (++ = a single % value ≧ 40%) | ≥ 7.00 | ≥ 40 | ≤ 0.1
5 | Cc1cc(/C(=C(\c2ccc(/C=C/C(=O)O)cc2)c2ccc3[nH]nc(F)c3c2)C2CCC2)c(C)s1 [Example 150, (E)-3-(4-((E)-2-Cyclobutyl-2-(2,5-dimethylthiophen-3-yl)-1-(3-fluoro-1H-indazol-5-yl)vinyl)phenyl)acrylic acid] | ++ (++ = a single % value ≧ 40%) | ≥ 7.00 | ≥ 40 | ≤ 0.1
6 | CC/C(=C(/c1ccc(/C=C/C(=O)O)cc1)c1ccc2[nH]ncc2c1)c1ccc(C#N)cc1F [Example 151, (E)-3-(4-((E)-2-(4-Cyano-2-fluorophenyl)-1-(1H-indazol-5-yl)but-1-en-1-yl)phenyl)acrylic acid] | ++ (++ = a single % value ≧ 40%) | ≥ 7.00 | ≥ 40 | ≤ 0.1
7 | O=C(O)/C=C/c1ccc(/C(=C(\c2ccc(F)cc2Cl)C2CCC2)c2ccc3[nH]nc(F)c3c2)cc1F [Example 271, (E)-3-(4-((Z)-2-(2-Chloro-4-fluorophenyl)-2-cyclobutyl-1-(3-fluoro-1H-indazol-5-yl)vinyl)-2-fluorophenyl)acrylic acid] | ++ (++ = a single % value ≧ 40%) | ≥ 7.00 | ≥ 40 | ≤ 0.1
8 | CC/C(=C(/c1ccc(/C=C/c2nnn[nH]2)cc1)c1ccc2[nH]nc(F)c2c1)c1ccc(F)cc1Cl [Example 170, 5-((E)-1-(4-((E)-2-(2H-Tetrazol-5-yl)vinyl)phenyl)-2-(2-chloro-4-fluorophenyl)but-1-en-1-yl)-3-fluoro-1H-indazole] | ++ (++ = a single % value ≧ 40%) | ≥ 7.00 | ≥ 40 | ≤ 0.1
9 | CC/C(=C(/c1ccc(/C=C/C(=O)O)cc1)c1ccc2[nH]nc(F)c2c1F)c1ccccc1 [Example 7, (E)-3-(4-((E)-1-(3,4-Difluoro-1H-indazol-5-yl)-2-phenylbut-1-en-1-yl)phenyl)acrylic acid] | ++ (++ = a single % value ≧ 40%) | ≥ 7.00 | ≥ 40 | ≤ 0.1
10 | COc1ccc(/C(=C(\c2ccc(/C=C/C(=O)O)cc2)c2ccc3nccn3c2)C2CCC2)c(C)c1 [Example 229, (E)-3-(4-((E)-2-Cyclobutyl-1-(imidazo[1,2-a]pyridin-6-yl)-2-(4-methoxy-2-methylphenyl)vinyl)phenyl)acrylic acid] | ++ (++ = a single % value ≧ 40%) | ≥ 7.00 | ≥ 40 | ≤ 0.1
11 | N#Cc1c(/C(=C(/c2ccc(F)cc2Cl)C2CCC2)c2ccc(/C=C/C(=O)O)cc2)ccc2[nH]nc(F)c12 [Example 225, (E)-3-(4-((E)-2-(2-Chloro-4-fluorophenyl)-1-(4-cyano-3-fluoro-1H-indazol-5-yl)-2-cyclobutylvinyl)phenyl)acrylic acid] | ++ (++ = a single % value ≧ 40%) | ≥ 7.00 | ≥ 40 | ≤ 0.1
12 | CC/C(=C(/c1ccc(/C=C/C(=O)O)cc1)c1ccc2[nH]nc(F)c2c1)c1ncc(Cl)cc1Cl [Example 264, (E)-3-(4-((E)-2-(3,5-Dichloropyridin-2-yl)-1-(3-fluoro-1H-indazol-5-yl)but-1-en-1-yl)phenyl)acrylic acid] | ++ (++ = a single % value ≧ 40%) | ≥ 7.00 | ≥ 40 | ≤ 0.1
13 | O=C(O)/C=C/c1ccc(/C(=C(\c2ccncc2F)C2CCC2)c2ccc3[nH]nc(F)c3c2)cc1 [Example 52, (E)-3-(4-((E)-2-Cyclobutyl-1-(3-fluoro-1H-indazol-5-yl)-2-(3-fluoropyridin-4-yl)vinyl)phenyl)acrylic acid] | ++ (++ = a single % value ≧ 40%) | ≥ 7.00 | ≥ 40 | ≤ 0.1
14 | CS(=O)(=O)c1cnc(Oc2ccc(/C(=C(\c3ccc(/C=C/C(=O)O)cc3)c3ccc4[nH]nc(F)c4c3)C3CCC3)cc2)cn1 [Example 122, (E)-3-(4-((E)-2-Cyclobutyl-1-(3-fluoro-1H-indazol-5-yl)-2-(4-((5-(methylsulfonyl)pyrazin-2-yl)oxy)phenyl)vinyl)phenyl)acrylic acid] | ++ (++ = a single % value ≧ 40%) | ≥ 7.00 | ≥ 40 | ≤ 0.1
15 | CC/C(=C(/c1ccc(/C=C/C(=O)O)cc1)c1ccc2c(cnn2CCO)c1)c1ccc(F)cc1Cl [Example 199, (E)-3-(4-((E)-2-(2-Chloro-4-fluorophenyl)-1-(1-(2-hydroxyethyl)-1H-indazol-5-yl)but-1-en-1-yl)phenyl)acrylic acid] | ++ (++ = a single % value ≧ 40%) | ≥ 7.00 | ≥ 40 | ≤ 0.1
16 | O=C(O)/C=C/c1ccc(/C(=C(\c2ccccc2F)C2CCC2)c2ccc3[nH]nc(F)c3c2)cc1 [Example 123, (E)-3-(4-((E)-2-Cyclobutyl-1-(3-fluoro-1H-indazol-5-yl)-2-(2-fluorophenyl)vinyl)phenyl)acrylic acid] | ++ (++ = a single % value ≧ 40%) | ≥ 7.00 | ≥ 40 | ≤ 0.1
17 | COc1nccc(/C(=C(\c2ccc(/C=C/C(=O)O)cc2)c2ccc3[nH]nc(F)c3c2)C2CCC2)c1C [Example 89, (E)-3-(4-((E)-2-Cyclobutyl-1-(3-fluoro-1H-indazol-5-yl)-2-(2-methoxy-3-methylpyridin-4-yl)vinyl)phenyl)acrylic acid] | ++ (++ = a single % value ≧ 40%) | ≥ 7.00 | ≥ 40 | ≤ 0.1
18 | O=C(O)/C=C/c1ccc(/C(=C(\c2ccncc2Cl)C2CCC2)c2cc3ccccc3o2)cc1 [Example 77, (E)-3-(4-((E)-1-(Benzofuran-2-yl)-2-(3-chloropyridin-4-yl)-2-cyclobutylvinyl)phenyl)acrylic acid] | ++ (++ = a single % value ≧ 40%) | ≥ 7.00 | ≥ 40 | ≤ 0.1
19 | N#Cc1n[nH]c2ccc(/C(=C(/c3ccc(F)cc3Cl)C3CCC3)c3ccc(/C=C/C(=O)O)cc3)cc12 [Example 248, (E)-3-(4-((E)-2-(2-Chloro-4-fluorophenyl)-1-(3-cyano-1H-indazol-5-yl)-2-cyclobutylvinyl)phenyl)acrylic acid] | ++ (++ = a single % value ≧ 40%) | ≥ 7.00 | ≥ 40 | ≤ 0.1
20 | Cc1cscc1/C(=C(\c1ccc(/C=C/C(=O)O)cc1)c1ccc2scnc2c1)C(C)C [Example 20, (E)-3-(4-((E)-1-(Benzo[d]thiazol-5-yl)-3-methyl-2-(4-methylthiophen-3-yl)but-1-en-1-yl)phenyl)acrylic acid] | ++ (++ = a single % value ≧ 40%) | ≥ 7.00 | ≥ 40 | ≤ 0.1
